Results: patent US8372455B2, “Cosmetic composition with anti-free radical activity” (LVMH Recherche, priority 2006, dated 2013)

system: human keratinocytes (HaCaT); assay: Antioxidizing power (free radical scavenging) in H2O2-treated keratinocytes with the DCFH-DA fluorescent probe; assay type: cell-based; conditions: 24 h treatment, 0.05 mg/ml ebselen, extract of Emblica, extract of Edelweiss, 0.1 μg/ml tocotrienol, idebenone, N-acetylcysteine, N=6, FIG. 1
Description: To do this, the inventors used an in vitro test on a model of human keratinocytes, which consisted in the in situ generation of free radicals in the presence and absence of substances with anti-free radical activity, and then in quantification, with the aid of a fluorescent probe of the type dichlorofluorescein diacetate (DCFH-DA), of the free radicals still present in the cells. This probe is well known to those skilled in the art and its use makes it possible to measure the amount of free radicals present as a function of the fluorescence signal emitted.
The antioxidizing power according to the invention, which corresponds in practice to the free radical scavenging power of each substance with anti-free radical activity or an association of such substances, is obtained using the following formula (A): antioxidizing power=([…])×100 (A) in which: Δ control=difference in fluorescence values between the control not treated with an active substance or an association of such substances, and the control treated with the reference oxidizing agent hydrogen peroxide (H2O2); Δ test=difference in fluorescence values between the control treated with an active substance or an association of active substances, and the control treated with H2O2.
In practice, the value of Δ control represents the situation where the oxidation is greatest. This value is to be considered as that of 100% oxidation. It is then possible, by taking the ratio ([…])×100, to determine the percentage oxidation in the presence of an active substance or an association of such active substances. The antioxidizing power can then be calculated as the difference from the maximum value of 100, corresponding to application of the above formula. […]
The fluorescence emitted is then directly proportional to the concentration of free radicals that has reacted in the medium.
Thus, in the presence of a substance with anti-free radical activity, the DCFH present in the medium encounters fewer free radicals and the value of the fluorescence signal emitted decreases as a consequence. […]

Row | Molecule | protective power (antioxidizing power) of individual substances with anti-free radical activity
1 | CC(=O)N[C@@H](CS)C(=O)O [N-acetylcysteine] | weakly protective
2 | COC1=C(OC)C(=O)C(CCCCCCCCCCO)=C(C)C1=O [idebenone, 2,3-dimethoxy-6-(10-hydroxydecyl)-5-methyl-1,4-benzo-quinone] | weakly protective
3 | alpha-tocotrienol | relatively high protective power
